Residues, ends and D or L forms follow the SMILES beside them. *: point of attachment. Tos = Cc1ccc(S(=O)(=O)*)cc1

With `CSc1ccc(-c2c(NN)nc(Cl)nc2-c2ccccc2)cc1`, the melting point (in general, the temperature, or range, at which the solid turns liquid) was 272 to 274 °C. Next, `CN1c2cscc2C(=O)N(CCN2CCCC2)c2ccccc21`: 139 to 141 °C. In turn, `OCc1cn(-c2ccc(Cl)cc2)cn1` had a melting point of 115 to 116 °C.

Regarding `COc1ccc2c(c1)CCC1C2=CCC2(C)C(O)CCC12` (stereo not drawn), the melting point fell in the range of 95 to 97 °C.

The compound `COc1ccc(S(=O)(=O)Nc2cccnc2Nc2ccc(O)c(C)c2)cc1` yielded a melting point of 89 to 91 °C. Then `Cc1cccc(-c2c(=O)[nH]c3cc(Cl)c(Cl)cc3[n+]2[O-])c1`, with 260 to 262 °C; and `O=C(O)CN1C(=O)c2cccc([N+](=O)[O-])c2C1=O`, with 200 to 202 °C; and `Cc1noc(NS(=O)(=O)c2ccccc2-c2ccc(-c3ncco3)cc2Cn2ccc(-c3ccccc3)n2)c1C`, with 164 to 168 °C. `Cc1ccc2c(c1)/C(=N\NC(N)=O)C(=O)N2CCCN(C(C)C)C(C)C`: the melting point was in the range of 145 to 148 °C. Next, `CC(C)CC1(CCCCCl)C(=O)Nc2ccccc21` (stereo not drawn): 124 to 125 °C; `O=C(O)C1CCC(c2ccccc2)n2c(=O)n(CCS)c(=O)n21` (stereo not drawn): 172 to 175 °C; `NS(=O)(=O)c1ccc(C2=C(c3ccc(-c4cscn4)cc3)C(=O)OC2)cc1F`: 194 °C. Next, `CCOC(=O)Cc1csc(Nc2ccc(Cl)c(C(F)(F)F)c2)n1`: 148 to 150 °C; `CS(=O)c1ccc(S(=O)(=O)N2CCCC2=O)cc1` (stereo not drawn): 127 to 129 °C.

In turn, `COC(=O)c1cc(C(F)(F)F)[nH]c1-c1ccc(Cl)cc1` returned a melting point of 120 to 122 °C. Next, `COc1cc2c(Nc3cccc(Cl)c3F)ncnc2cc1OC1CCN(C(=O)C2CCCO2)CC1` (stereo not drawn): 193 to 194 °C. Then `Cc1c(/C=C2\COc3ccccc3C2=O)ncn1C(c1ccccc1)(c1ccccc1)c1ccccc1`, with 231 to 233 °C; and `CC(=O)N1CCN(CCc2ccc(-c3cccc(N)n3)cc2)CC1`, with 201 to 203 °C; and `O=C(C=C1SC(Nc2c(Cl)cccc2Cl)=NC1=O)NCc1ccccc1`, with 205 to 206 °C. In turn, `Cc1oc(-c2ccccc2)nc1CCOc1ccc(CC(F)(C(=O)O)c2ccccc2)cc1` (stereo not drawn) displayed a melting point of 163 to 165 °C. Then `CC(=O)NCC1CN(c2ccc(N3CCN(c4nc5ccccc5o4)CC3)c(F)c2)C(=O)O1` (stereo not drawn), with 223 to 224 °C; and `Nc1ccccc1Nc1ccccc1F`, with 82 to 83 °C; and `CC(C)C[C@@H](CO)NC(=O)[C@H](Cc1c[nH]cn1)NC(=O)[C@H](CSSc1ncccc1[N+](=O)[O-])NC(=O)OC(C)(C)C`, with 185 to 188 °C.

The compound `CC(C)c1nn(-c2ccc(C(F)(F)F)cc2)cc1CCCOc1ccccc1CC(=O)O` registered a melting point of 89 to 90 °C. `Nc1ncnc2c([C@@H]3N[C@H](CO)[C@@H](O)[C@H]3O)c[nH]c12` registered a melting point of 238 °C. Then `C=CCN(CCC)S(=O)(=O)NC(=O)c1cc(N)c(F)cc1Cl`, with 104 to 106 °C; and `CC12CCC(O)CC1CCC1C2CCC2(C)C(C(=O)COc3cccnc3)CCC12` (stereo not drawn), with 63 to 66 °C; and `Cc1ccc(S(=O)(=O)N2CCC[C@H]2C(=O)N[C@@H](C)C(=O)O)cc1` (Tos-Pro-Ala-OH), with 160 to 162 °C. Then `CCOC(=O)CCNc1ncccc1NC(=O)c1ccccc1Cl`, with 90 to 92 °C; and `COC(=O)c1c(-c2ccc(C)cc2)ccnc1O`, with 222 to 224 °C.

The compound `O=C(O)CCC1CNC(=O)CC1c1ccc(F)cc1` (stereo not drawn) had a melting point of 139 to 141 °C. Next, `O=Cc1ccc(-c2ccc(C(F)(F)F)cc2)cc1`: 70 °C. `CC(C)[C@H](NC(=O)OC(C)(C)C)C(=O)C1CC(=O)NC1=O` (stereo partly drawn) came in with a melting point of 123 to 124 °C.

`CCCn1c(=S)nc(NCc2ccncc2)c2[nH]c(C3CC3)nc21` returned a melting point of 204 to 210 °C. Then `CC(Oc1ccc(C2CCOCC2)cc1)C(=O)O` (stereo not drawn), with 156 °C; and `O=c1c2cccnc2c(-c2cccc(Cl)c2)cn1Cc1ccccc1`, with 149 to 150 °C. Then `COc1cccc2c1CC1(CCCCC1)C2=O`, with 94 to 96 °C. Next, `CCCc1c(OCC(=O)O)ccc(C(C)=O)c1O`: 128 to 130 °C. Take `CCN(Cc1ccc(C(=O)O)cc1)c1cc(Br)ccc1OCc1ccccc1`: the melting point was in the range of 94.5 to 95 °C. Then `O=C(CN1CS(=O)(=O)CC1=O)N1CCN(C(c2ccccc2)c2ccccc2)CC1`, with 209 to 211 °C. Then `NS(=O)(=O)c1cnccc1C1=NOCCO1`, with 163 to 164 °C. As to `C=CCc1c(O)ccc2ncccc12`, the melting point was in the range of 162 to 164 °C. Next, `CC(C)n1nc(-c2sc(NC(=O)c3ccc(CN(C)CCN(C)C)cc3)nc2-c2ccccc2)ccc1=O`: 131 to 133 °C. Turning to `Nc1cccc2c1CNC2`, the melting point was in the range of 81 to 85 °C.

Turning to `O=C(Nc1ccc(F)cc1F)C(=O)c1c2n(c3ccccc13)CCNCC2`, the melting point was 184 to 186 °C. Next, `CCOC(=O)c1sc2c(c1OC(C)=O)CN(Cc1ccccc1Cl)CC2`: 110 °C. Then `COCC(=O)Nc1cccc(NC(=O)COC)c1`, with 110 to 111 °C; and `CC(=O)OCC1C=CC(n2cc(F)c(N)nc2=O)O1` (stereo not drawn), with 182 to 184 °C. Then `COc1ccc2cc([C@H](C)C(=O)OCCS(=O)CCO)ccc2c1` (stereo partly drawn), with 74 to 86 °C. In turn, `COC(C#N)Cc1ccc2oc(Cc3nc(-c4ccccc4)oc3C)cc2c1` (stereo not drawn) had a melting point of 107 to 109 °C.

The compound `COc1cc(C=CC(=O)OCCCCBr)ccc1O` had a melting point of 86 to 89 °C.

Take `CC(C)C[C@H](NC(=O)[C@H](CS)C(F)(F)F)c1nnn[nH]1`: the melting point is 183 to 184 °C. As to `CC(C)c1cc(Oc2ccccc2)cc(C2CCCCC2)c1N`, the melting point was 108 to 110 °C. Then `CS(=O)(=O)c1ccc(-c2nn3c4c(oc3c2-c2ccc(F)cc2)COCC4)cc1`, with 200 to 201 °C; and `CCCn1nc(C2CC2)c(C(=O)OCC)c1Cc1ccc(-c2ccccc2-c2nnn[nH]2)cc1`, with 148 to 149 °C.

`CS(=O)(=O)c1ccc(-c2cnn(-c3ccc(Cl)cc3)c(=O)c2-c2ccc(F)cc2)cc1` displayed a melting point of 214 to 216 °C. Then `CC(Cc1cccnc1)n1nnc2cc3c(=O)n(C4CC4)nnc3cc2c1=O` (stereo not drawn), with 160 to 161 °C; and `CCOC(=O)c1sc(SC)c(C(=O)CC)c1C`, with 114 to 115 °C.

For `N#Cc1ccc(C2(n3ccnc3)Cc3ccccc3C2)cc1`, the melting point was in the range of 150 to 152 °C. Then `CC(C)(CO)Nc1nc(-c2cccc(C#N)c2)cs1`, with 124 to 126 °C; and `CN(C)CCCN1N=C2C(=Cc3ccccc3)CCCCC2C1c1ccccc1` (stereo not drawn), with 92 to 94 °C; and `Cc1cccc(NC(=O)NC2N=C(c3ccccc3F)c3ccccc3N(Cc3csc4ccccc34)C2=O)c1` (racemic), with 214 to 216 °C. Then `COC(=O)c1cc(C)cc(CNO)c1`, with 99 to 100 °C; and `COC(=O)c1cc(NC(=O)Nc2ccccc2)ccn1`, with 206 to 208 °C; and `CN1CCN(CCC#Cc2cc3c(Nc4ccc5[nH]ccc5c4)c(C#N)cnc3s2)CC1`, with 195 to 197 °C. For `CCCCCCCCC(=O)OCc1c(Cl)ccc2cc(Cl)cnc12`, the melting point turned out to be 92 °C. The compound `Cc1c(NC(=O)c2ccc(-c3ccc(F)cc3F)cc2)ccc2cc(CN3CCCC3)cnc12` showed a melting point of 177 to 179 °C.

Regarding `CCCCSc1cc(C(=O)OCC)cc(S(N)(=O)=O)c1Cc1ccccc1`, the melting point lay in the range of 120 to 122 °C. Then `Cc1ccccc1C1C(=O)CC2CCCCC2C1=O` (stereo not drawn), with 165 to 167 °C. Compound `CCOC(=O)c1ccc(OCCOc2ccc(-c3onc(SC)c3C#N)cc2)cc1` returned a melting point of 162 to 164 °C.

`CNC(=O)[C@]1(n2cnc3c(NCc4cccc(I)c4)nc(Cl)nc32)SC[C@H](O)[C@@H]1O` yielded a melting point of 205 to 207 °C. With `COc1ccc(C(=O)Oc2c(C)c(C)c3oc(C)c(-c4ccc(C(C)C)cc4)c3c2C)cc1`, the melting point lay in the range of 113 to 115 °C.

Consider `COc1ccc(Br)c(CN(CC(F)(F)F)C(=O)OC(C)(C)C)c1`, for which the melting point lay in the range of 86 to 89 °C.

With `O=C(Oc1ccc([N+](=O)[O-])cc1)c1cnc2cc(I)ccc2n1`, the melting point was 228 to 230 °C. Next, `CCC(=O)NC/C=C1\CCc2ncc3c(c21)CCO3`: 163 to 164 °C. Next, `CCCCCC(=O)Nc1c(C)c(C)c2c(c1C)C(c1ccc(C)cc1)C(C)(C)O2` (stereo not drawn): 96 to 97 °C. As for `CCn1cc(C2(c3cccc(-c4cccnc4F)c3)N=C(N)N3CCCN=C32)cn1` (stereo not drawn), the melting point is 91 to 115 °C. In turn, `COC(=O)c1scc(-c2ccccc2OC)c1-n1cccc1` showed a melting point of 148 °C. Take `C[C@@H](n1cnc2cc(-c3ccc(F)cc3)sc2c1=O)[C@](O)(Cn1cncn1)c1ccccc1F`: the melting point lay in the range of 213 to 225 °C. `Cn1cc(O)c(=O)c2cccc(F)c21` displayed a melting point of 248 °C. Next, `Cc1cc(Br)cnc1CCCCNC1=NS(=O)N=C1NCc1cccnc1` (stereo not drawn): 179 to 180 °C; `CCCc1c(C(C)C)nc(C(C)C)c(C(C)O)c1-c1ccc(F)cc1` (stereo not drawn): 103 to 104 °C; `O=C(O)c1ccc2c(c1)Sc1ccc([N+](=O)[O-])cc1C=C2`: 304 to 306 °C. Then `O=C1CCC2=C(CCc3cc(Cl)c(Cl)cc32)N1`, with 260 to 261 °C; and `O=c1[nH]c2cc(Cl)ccc2c(CCc2nnn[nH]2)c1-c1ccccc1`, with 231 to 233 °C; and `CCc1nc2c(N)nc3cc(CCCNC(=O)NC(C)C)ccc3c2n1CC1CCOCC1`, with 213 to 216 °C. Next, `CS(=O)c1nnc(-c2ccc3ncn(-c4ccc(OC(F)F)cc4)c3c2)o1` (stereo not drawn): 135 to 136 °C; `CNC(=O)c1ccc(C2C(C(=O)c3ccc(C)cc3)=C(O)C(=O)N2c2ncc(S(=O)(=O)c3ccc([N+](=O)[O-])cc3)s2)cc1` (stereo not drawn): 195 to 197 °C.

The values are drawn from a melting point compilation (Tetko et al.; mined from patent text by program, amines drawn as free bases though some values may be those of a salt).
